Tested on: tissues with NASH
Test: Evaluation of drug treatment in NASH disease model using GAN-generated phase/fluorescence images
Format: cell-based
Settings: NASH 2X + ACC inhibitor
Text: FIG. 16A illustrates synthetic images generated by an exemplary GAN model to study the NASH disease, in accordance with some embodiments. In the depicted example, Hepg2 cells with NASH genetic background are illuminated using an optimal illumination pattern identified using techniques described herein, and a bright-field image is captured. The bright-field image is inputted into a GAN model, which outputs a generated phase image and a generated fluorescence/bodipy image in FIG. 16A. The GAN model used in FIG. 16A can be configured to include a trained classifier as described with reference to FIGS. 14A-B and 15. The classifier has two conditions: a healthy condition (e.g., no perturbations) and a diseased condition (e.g., inflammation cocktail plus fatty acid). […]
The synthetic images generated by the GAN model can also be used to evaluate the efficacy of a treatment. […] The images can be phase images or fluorescence images generated using the techniques described herein (e.g., from bright-field images). Each phase or fluorescence image can be generated based on multiple bright-field images and thus comprises richer information such as phase shift information. Accordingly, the generated phase or fluorescence images can allow for higher precision in downstream analyses, as described below. […]

COc1ccccc1[C@H](Cn1c(=O)n(C(C)(C)C(=O)O)c(=O)c2c(C)c(-c3ncco3)sc21)OC1CCOCC1 [ACC inhibitor, firsocostate]
probability of having the disease outputted by a classifier trained on generated images (distribution, FIG. 16C) (50 uM, treated tissues vs untreated diseased tissues, generated images): lower probabilities of having the disease than generated images of diseased tissues | image clusters in an embedding space (UMAP, FIG. 16D) (generated images of treated vs diseased vs healthy tissues): moves away from the cluster of generated diseased images and toward the cluster of generated healthy images

Source: patent US12482280B2, “Biological image transformation using machine-learning models” (Insitro, Inc., priority 2020, dated 2025)
